In patent publication US9694084B2, “Methods to induce targeted protein degradation through bifunctional molecules” (Dana-Farber Cancer Institute, Inc., priority 2014, dated 2017):
pIC50: −log10 of the molar value.

Key:
[1] = target: recombinant, human CRBN-DDB1 and BRD4 (Homo sapiens, UniProt O60885+Q96SW2); assay: CRBN-DDB1/BRD4 dimerization (proximity) AlphaScreen assay; type: biochemical; conditions: co-incubation with 111 nM dBET1, competitor 1 μM, stereo-specific
PIM1 = assay: Expression proteomics in MV4-11 cells; conditions: 250 nM, 2 hours
[2] = tested on: MV4-11 cell proliferation; assay: MV4-11 cell proliferation (ATP content); type: cell-based; conditions: Homo sapiens, MV4-11, 24 h, read-out: IC50, MV4-11 cell proliferation (ATP content)
MV4-11 cells = assay: Apoptosis in MV4-11 cells (Caspase-GLO, PARP and Caspase-3 cleavage, Annexin V); type: cell-based, human; conditions: MV4-11, 4 or 8 hours then drug washout, assessed at 24 hours

Compound	competition of dBET1 induced proximity [1]	PIM1 protein abundance (PIM1)	pIC50 [2]	apoptotic response after pulsed treatment (MV4-11 cells)
O=C1CCC(N2C(=O)c3ccccc3C2=O)C(=O)N1 (centres unmarked) [thalidomide]	Inhibition of chemical adaptor function was accomplished	–	–	–
Cc1sc2c(c1C)C(c1ccc(Cl)cc1)=N[C@@H](CC(=O)OC(C)(C)C)c1nnc(C)n1-2 [JQ1]	Inhibition of chemical adaptor function was accomplished	downregulated	5.96	did not yield a pronounced apoptotic response
